Key:
Format in all cases: cell-based, human
MDAMB231 = experiment: Cell survival, trypan blue counting; details: for efficacy of the combination of PARPi with AsiDNA versus calculated additivity: 4.8 μM or 16 μM AsiDNA, PARPi doses giving 80% and 50% survival, 6 days; for IC20 / IC50: Homo sapiens, MDA-MB-231, MDAMB231; for IC20: PARPi dose giving 80% survival; for IC50: PARPi dose resulting in 50% survival
Procedure: Cells were grown according to the supplier's instructions.

3 BC cell lines = experiment: Combined treatment survival in BC cell lines (FIG. 6, 7, 12); details: AsiDNA 4.8 μM with veliparib 10 and 50 μM; 6 days
Procedure: (§1) Efficacy of AsiDNA (4. 8 μM), olaparib (0, 0.1 and 1 μM) or both was monitored 6 days after treatment by cell counting after trypan blue labeling. (A) Percentage of living cells relative to non-treated condition (NT). (B) Percentage of dead cells. Data are expressed as mean+Sc.D. of at least 2 independent experiments. Dotted lines indicate the calculated cell survivals if additivity between AsiDNA and olaparib.
Efficacy of AsiDNA (4.8 μM), veliparib (0, 10 and 50 μM) or both was monitored 6 days after treatment by trypan blue staining. (A) Percentage of living cells relative to non-treated condition (NT). (B) Percentage of dead cells. Dotted lines indicate the calculated cell survivals if additivity between AsiDNA and veliparib.
The inventors monitored cell survival to combined treatment of 3 BC and 2 non-tumor cell lines with different sensitivities to Ola and AsiDNA alone (FIG. 6; Table 1). […] However, the combination remained more efficient or at least equal to the expected additive effect at all the tested doses. […] In contrast, the normal cells were insensitive to both, the combined and the single treatments with AsiDNA and Ola (FIG. 6; Table 1).

[1] = system: Breast cancer cell lines MDAMB231; experiment: Cell survival with DT01 and PARP inhibitors (Example 1, FIG. 1); details: DT01 100 or 333 μg/ml plus Olaparib 0.1, 1 μM or Veliparib 1, 10, 50 μM; 6 days
Procedure: Breast cancer cell lines MDAMB231 were treated with 100 μg/ml (Black, Squares) or 333 μg/ml (Grey, Crosses) of DT01 or no DT01 (Black, Diamond) and exposed to either 0, 0.1 and 1 μM of Olaparib (upper panel) or 1, 10 and 50 μM Veliparib (lower panel). Survival was measured 6 days after treatment using trypan blue to detect living cells. The data are presented as % of the non-treated control.
The human cell lines were grown in complete RPMI (Gibco, Cergy Pontoise, France) supplemented with 10% fetal bovine serum (ATGC, Orléans, France), 1% sodium pyruvate, streptomycin ([…]) and penicillin ([…]) (Invitrogen, Carlsbad, Calif., USA). Cells were maintained at 37° C. under a 5% CO2 atmosphere, at 100% humidity. Treatments were performed by adding nucleotides (DT01 and others) or/and PARP inhibitors at time zero in medium without serum. The medium was changed with fresh medium containing fetal bovine serum 24 hours after beginning of treatment. Cells were let to grow for 4 additional days (5 days after treatment), treated with trypsin and counted for total number of cells. Trypan blue (0.4%) was added for counting the living cells (uncolored) in the population.

2 non-tumor cell lines = experiment: Combined treatment survival in non-tumor cell lines (FIG. 6, 12); details: AsiDNA 4.8 μM with veliparib 10 and 50 μM; 6 days
Procedure: as §1
(A) Percentage of living cells relative to non-treated condition (NT). (B) Percentage of dead cells. Dotted lines indicate the calculated cell survivals if additivity between AsiDNA and veliparib.
The inventors monitored cell survival to combined treatment of 3 BC and 2 non-tumor cell lines with different sensitivities to Ola and AsiDNA alone (FIG. 6; Table 1).

Compound | efficacy of the combination of PARPi with AsiDNA versus calculated additivity (MDAMB231) | IC20 (MDAMB231) [nM] | IC50 (MDAMB231) [nM] | effect of the combined treatment with AsiDNA (3 BC cell lines) | survival to combined treatment with DT01 versus expected added effect of both single treatments [1] | synergistic effect of the combined treatment with AsiDNA (2 non-tumor cell lines)
COC1CCN(C(=O)c2cc(Cc3n[nH]c(=O)c4ccccc34)ccc2F)CC1 [AZD2461] | supra-additive efficacy | 100 | 500 |  |  | 
Cn1ncnc1[C@H]1c2n[nH]c(=O)c3cc(F)cc(c23)N[C@@H]1c1ccc(F)cc1 [BMN673, (8S,9R)-5-fluoro-8-(4-fluorophenyl)-9-(1-methyl-1H-1,2,4-triazol-5-yl)-8,9-dihydro-2H-pyrido[4,3,2de]phthalazin-3(7H)-one] | supra-additive efficacy | 0.13 | 15.4 |  |  | 
NC(=O)c1ccc(I)c([N+](=O)[O-])c1 [Iniparib] | supra-additive efficacy | 46000 | 49500 |  |  | 
NC(=O)c1cccc2cn(-c3ccc([C@@H]4CCCNC4)cc3)nc12 [Niraparib] | supra-additive efficacy | 100 | 700 |  |  | 
CNCc1ccc(-c2[nH]c3cc(F)cc4c3c2CCNC4=O)cc1 [Rucaparib, 8-Fluoro-2-{4-[(methylamino)methyl]phenyl}-1,3,4,5-tetrahydro-6H-azepino[5,4,3-cd]indol-6-one] | supra-additive efficacy | 400 | 1800 |  |  | 
C[C@]1(c2nc3c(C(N)=O)cccc3[nH]2)CCCN1 [Veliparib, 2-((fi)-2-methylpyrrolidin-2-yl)-1W-benzimidazole-4-carboxamide] |  |  |  | synergistic effect | synergic effect | absent

— patent publication US10563197B2, “Use of a combination of Dbait molecule and PARP inhibitors to treat cancer” (INSTITUT CURIE, priority 2015, dated 2020)
